Data published in US20020177120A1, “ASSAYS FOR APOTOSIS MODULATORS” (priority 1999, published 2002).

Assays:
[1] = system: F10-24-2 control cells; experiment: FRET reporter control assay in F10-24-2 (SnAT) cells; assay type: cell-based, human
Source text: (§1) Transfection of pcDNA3VH-SgAT and pcDNA3VH-SnAT into U-138 cells (using methods described above) resulted initially in few colonies and FRET signal was lost in many clones during expansion, however, from among the various subclones the F9-1-13 (pcDNA3VH-SgAT transfected; ATCC No. PTA-84) and F10-24-2 (pcDNA3-SnAT transfected) subclones were eventually expanded and shown to express stable FRET signals. As desired, the FRET signal expressed in F9-1-13 decreased in response to both staurosporin and anti-Fas antibody treatment of cells, while the FRET signal expressed by the F10-24-2 control cells, (i.e., lacking a caspase substrate domain), was unaffected following staurosporin or anti-Fas antibody treatment. […] F9-1-13 therefore appeared suitable for microtiter assays, and perhaps use in HTS assays for screening to identify and select modulators of apoptosis.

[2] = system: caspase-3; experiment: Inducibility and kinetics of apoptosis in U-138 cells (caspase-3 activity, inter-nucleosomal DNA fragmentation); assay type: cell-based, human
Procedure: DNA Fragmentation ELISA: Apoptosis-induced inter-nucleosomal fragmentation of chromosomal DNA was quantified using the “Cell Death Detection ELISA^PLUS” (Boehringer Mannheim) according to the manufacturer's instructions. Briefly, ˜10^4 cells/well were plated on a poly-D-lysine-coated 96-well plate and treated for various periods of times with different apoptosis-inducing agents. The cells were lysed and the nuclei and membranes were pelleted. An aliquot of the cytoplasm-containing supernatant was then transferred to a streptavidin-coated microtiter plate and incubated with anti-histone-biotin and anti-DNA-peroxidase, resulting in the formation of “sandwich” antibody complexes, i.e., (anti-DNA-peroxidase)-(nucleosomal-DNA-containing-histone) -(anti-histone-biotin)-(streptavidin-microtiter plate). Unbound antibody was removed by washing. Peroxidase substrate (i.e., ABTS) was added and nucleosomal DNA complexes quantified by spectrophotometric analysis of the colored peroxidase reaction product.
Caspase-3 Assay: Caspase-3 activity was assayed according to the following protocol. Cells plated and treated as above were washed in 1×PBS and lysed in 1×assay buffer (1 mM DTT, 1% Triton X-100, 0.5% Tween-20 in 1×PBS, pH 7.2). […] Fluorescence readings were taken on the Cytofluor II plate reader (excitation 360 nm, emission 460 nm, 6 reads/well, gain 50).

[3] = system: F9-1-13 cells; experiment: Cell-based FRET reporter assay in F9-1-13 (SgAT) cells; parameters: species or system human
Source text: as §1
Studies were initiated to adapt the experimental cell-based FRET assay of EXAMPLE 5 to a format suitable for use in high-throughput screening. First, the assay was scaled down from a 24-well to a 96-well plate format. Cells from three different F9 parental cultures were plated in a black-sided 96-well plates (Costar #3904) at a density of 32,000 cells/well (˜1×10^5 cells/cm^2); allowed to adhere overnight; and then the media was replaced with either 100 μl fresh media containing inducer (5 μM staurosporin in 0.25% DMSO vehicle) or 100 μl containing only vehicle (0.25% DMSO). After an overnight incubation, fluorescence measurements were made to evaluate FRET signal changes. […] The assay therefore appeared to be adaptable to a 96-well format but it was not initially clear how signal might be improved to increase the signal-to-background ratio.
A 96-well FRET assay was evaluated for inter-assay well variability and inter-plate variability. Possible signal drift during measurement of the FRET fluorescence signal was evaluated using one of two different robotics-compatible rapid fluorescence plate readers (SpeedReader or Cytofluor II). After plating at an initial density of about 60,000 cells/well, and overnight culture F9-1-13 cells were treated with 5 μM staurosporin, or vehicle. After an overnight incubation in staurosporin (i.e., 16-24 hrs.), the plates were either washed, or not washed, and then assayed repeatedly over the next 1.5 hours using either of the plate readers. […] However, using the same assay conditions but with anti-Fas antibody as an inducer, different results were recorded. […] The basis for the observed differences in measuring devices is not clear, but may relate to the design of the light source and/or the sensitivity of the detection circuitry in the two different respective fluorescence readers as well as possible different means for optically or digitally subtracting background incident radiation.
Assay Confirmation: The following experiment was performed to validate the ability of the 96-well FRET assay to detect inhibitors of apoptosis: namely, F9-1-13 cells (n=5 wells) were treated with 50-100 μM Z-VAD-fmk (a broad spectrum caspase inhibitor) or vehicle (n=55) in randomized wells of a 96-well plate. All of these wells, and six additional positive control wells (i.e., lacking the inhibitor), were treated with 5 μM staurosporine in 0.25% DMSO vehicle. Six negative control wells were treated with vehicle only (0.25% DMSO). After overnight incubation, FRET signal changes were evaluated as described above.
Three alternatives to staurosporine induction were evaluated: serum withdrawal; c2-ceramide treatment; and induction via engagement of the CD95/Fas receptor with anti-Fas antibody. […] To increase the proportion of adherent cells, poly-D-lysine and 0.1% gelatin were evaluated in anti-Fas antibody treated F9-1-13 cells. […] Anti-Fas antibody was therefore chosen as a preferred inducer of apoptosis for high-throughput screening. […]

SMILES: CN[C@@H]1C[C@H]2O[C@@](C)([C@@H]1OC)n1c3ccccc3c3c4c(c5c6ccccc6n2c5c31)C(=O)NC4 [staurosporin]
- FRET signal response to inducer treatment ([1]; reporter lacking a caspase substrate domain): unaffected
- FRET reporter western blot before and after induction of apoptosis ([1]; staurosporin induction): no visible difference
- time at which caspase-3 activity and inter-nucleosomal DNA fragmentation were maximally altered ([2]; 5 μM staurosporin, minimal at 4 hrs., intermediate by 8 hrs.): 16 to 24 h
- inducibility of caspase-3 activity ([2]; 30-300 μM etoposide or 1.5-15.0 μM staurosporin, 8 hrs.): inducible with staurosporin
- FRET signal compared to the vehicle control ([3]; 96-well, three F9 parental cultures, 32,000 cells/well, 5 μM overnight): significant (P<0.05) reduction in the FRET signal
- time to measurable changes in FRET signal ([3]; 60,000 cells/well, 5 μM, either fluorescence reader): ≤ 4 h
- FRET signal response to inducer treatment ([3]; F9-1-13 subclone): decreased
- FRET reporter cleavage by western blot after induction ([3]; staurosporin induction): significant (but not complete) cleavage of reporter
